The record followed here is paper PMC12350162, “Electron flow in hydrogenotrophic methanogens under nickel limitation” (Nature, 2025).

The target of assay [1] is T1, Elp–Hdr complex, HdrA site (bifurcating FAD) (Methanothermobacter marburgensis, UniProt Q50756).
T1 construct: with H(2):CoB-CoM heterodisulfide,ferredoxin reductase subunit B; H(2):CoB-CoM heterodisulfide,ferredoxin reductase subunit C; F420-dependent electron-donating protein A (truncated formate dehydrogenase alpha subunit FdhA homologue); F420-dependent electron-donating protein B (formate dehydrogenase beta subunit FdhB homologue); F420-dependent electron-donating protein C (MvhD homologue)
Description: cryo-EM structure. It counts as binding. Conditions: electron-bifurcating FAD site of HdrA; co-purified native cofactor.

The target in assay [2] is T2, Elp–Hdr complex (ElpABC–HdrABC)2, ElpB site (Methanothermobacter marburgensis, UniProt D9PY03).
T2 construct: gene fdhB; with F420-dependent electron-donating protein A (truncated formate dehydrogenase alpha subunit FdhA homologue); F420-dependent electron-donating protein C (MvhD homologue); H(2):CoB-CoM heterodisulfide,ferredoxin reductase subunit A; H(2):CoB-CoM heterodisulfide,ferredoxin reductase subunit B; H(2):CoB-CoM heterodisulfide,ferredoxin reductase subunit C
As to the kind of experiment: cryo-EM structure. The settings on record: FAD-binding site of ElpB; co-purified native cofactor; states 1 and 2.

The structures appear in SMILES notation.

T1 sequence (Q50756 2-659): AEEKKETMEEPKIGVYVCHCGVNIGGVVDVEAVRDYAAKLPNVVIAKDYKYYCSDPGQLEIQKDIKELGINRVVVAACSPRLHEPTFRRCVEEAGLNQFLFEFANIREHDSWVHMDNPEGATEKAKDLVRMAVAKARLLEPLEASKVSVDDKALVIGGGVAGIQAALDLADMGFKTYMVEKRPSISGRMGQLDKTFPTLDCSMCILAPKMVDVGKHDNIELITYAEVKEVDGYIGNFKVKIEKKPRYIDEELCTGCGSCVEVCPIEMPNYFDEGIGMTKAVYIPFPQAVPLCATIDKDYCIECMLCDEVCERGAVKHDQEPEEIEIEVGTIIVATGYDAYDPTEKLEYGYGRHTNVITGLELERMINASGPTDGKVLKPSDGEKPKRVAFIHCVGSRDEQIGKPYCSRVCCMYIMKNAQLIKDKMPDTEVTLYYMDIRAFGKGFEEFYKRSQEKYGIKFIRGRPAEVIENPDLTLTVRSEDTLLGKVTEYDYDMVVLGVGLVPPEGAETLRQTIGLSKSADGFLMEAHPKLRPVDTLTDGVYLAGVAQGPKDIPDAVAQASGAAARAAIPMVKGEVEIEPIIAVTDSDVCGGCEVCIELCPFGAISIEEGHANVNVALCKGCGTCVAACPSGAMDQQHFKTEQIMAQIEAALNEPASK
T1 sequence (Q50755 whole entry partner, the tested form may be a part): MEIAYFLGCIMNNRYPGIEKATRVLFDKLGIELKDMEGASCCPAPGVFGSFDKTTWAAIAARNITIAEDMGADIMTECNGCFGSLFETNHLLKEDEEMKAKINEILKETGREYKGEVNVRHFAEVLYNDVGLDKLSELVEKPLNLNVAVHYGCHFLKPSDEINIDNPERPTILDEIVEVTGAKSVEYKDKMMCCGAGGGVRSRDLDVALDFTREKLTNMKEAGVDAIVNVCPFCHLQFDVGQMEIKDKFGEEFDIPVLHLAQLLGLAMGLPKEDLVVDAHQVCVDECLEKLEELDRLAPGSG
T1 sequence (Q50754 2-185 partner): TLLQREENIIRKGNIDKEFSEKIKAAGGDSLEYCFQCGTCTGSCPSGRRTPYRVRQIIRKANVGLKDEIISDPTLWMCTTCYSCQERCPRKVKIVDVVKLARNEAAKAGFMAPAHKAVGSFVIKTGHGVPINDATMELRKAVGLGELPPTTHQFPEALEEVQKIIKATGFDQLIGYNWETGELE
T1 sequence (D9PY04 1-342 partner): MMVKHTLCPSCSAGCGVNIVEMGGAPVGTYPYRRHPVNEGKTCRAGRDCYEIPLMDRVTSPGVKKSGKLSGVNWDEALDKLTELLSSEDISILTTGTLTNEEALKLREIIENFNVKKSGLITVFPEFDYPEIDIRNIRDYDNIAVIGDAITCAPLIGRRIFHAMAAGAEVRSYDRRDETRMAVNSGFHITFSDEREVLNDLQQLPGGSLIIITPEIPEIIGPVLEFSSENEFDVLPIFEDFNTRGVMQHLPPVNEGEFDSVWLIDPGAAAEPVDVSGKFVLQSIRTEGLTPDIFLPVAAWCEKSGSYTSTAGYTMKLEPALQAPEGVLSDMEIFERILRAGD
T1 sequence (D9PY03 1-380 partner): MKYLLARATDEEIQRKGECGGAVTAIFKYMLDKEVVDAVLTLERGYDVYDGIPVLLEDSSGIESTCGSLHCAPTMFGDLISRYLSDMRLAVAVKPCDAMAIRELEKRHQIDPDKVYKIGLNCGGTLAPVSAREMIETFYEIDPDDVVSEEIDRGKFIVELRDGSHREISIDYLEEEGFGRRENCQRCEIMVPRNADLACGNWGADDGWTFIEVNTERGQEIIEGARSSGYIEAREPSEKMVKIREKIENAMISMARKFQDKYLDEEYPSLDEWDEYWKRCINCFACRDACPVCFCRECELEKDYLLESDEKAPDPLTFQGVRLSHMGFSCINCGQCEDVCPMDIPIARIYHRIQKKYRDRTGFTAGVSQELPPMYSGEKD
T1 sequence (D9PY02 1-136 partner): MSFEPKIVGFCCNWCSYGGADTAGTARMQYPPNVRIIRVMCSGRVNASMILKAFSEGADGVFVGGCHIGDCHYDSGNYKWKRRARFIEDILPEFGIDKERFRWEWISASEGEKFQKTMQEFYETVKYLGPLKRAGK
T2 sequence (D9PY03 1-380): as the sequence (D9PY03 1-380 partner) above
T2 sequence (D9PY04 1-342 partner): as the sequence (D9PY04 1-342 partner) above
T2 sequence (D9PY02 1-136 partner): as the sequence (D9PY02 1-136 partner) above
T2 sequence (Q50756 2-659 partner): as the sequence (Q50756 2-659) above
T2 sequence (Q50755 whole entry partner, the tested form may be a part): as the sequence (Q50755 whole entry partner, the tested form may be a part) above
T2 sequence (Q50754 2-185 partner): as the sequence (Q50754 2-185 partner) above

Consider `Cc1cc2nc3c(=O)[nH]c(=O)nc-3n(C[C@H](O)[C@H](O)[C@H](O)COP(=O)(O)OP(=O)(O)OC[C@H]3O[C@@H](n4cnc5c(N)ncnc54)[C@H](O)[C@@H]3O)c2cc1C` [FAD], for which the cryo-EM structure result in assay [1] was “Cofactors including the electron-bifurcating FAD of HdrA”; in assay [2], “the positions of FAD and the four [4Fe–4S] clusters are conserved”.
